Assay results from US9750742B2, “Small molecular inhibitors of RAD51 recombinase and methods thereof” (Drexel University, priority 2011, dated 2017).
Values belong to the compound of their own block, whether it stands above or below them.

Assays:
RAD51 = biological target: T1, RAD51 (Homo sapiens, UniProt Q06609); test: D-loop assay for RAD51; type: biochemical; conditions: for inhibitory effect on D-loop formation by RAD51, in words: B02 derivatives 50 μM; for IC50: RAD51 1 μM, ssDNA 3 μM, dsDNA 50 μM, compound added after filament formation
T1 construct: made in house
T1 sequence (Q06609 1-339): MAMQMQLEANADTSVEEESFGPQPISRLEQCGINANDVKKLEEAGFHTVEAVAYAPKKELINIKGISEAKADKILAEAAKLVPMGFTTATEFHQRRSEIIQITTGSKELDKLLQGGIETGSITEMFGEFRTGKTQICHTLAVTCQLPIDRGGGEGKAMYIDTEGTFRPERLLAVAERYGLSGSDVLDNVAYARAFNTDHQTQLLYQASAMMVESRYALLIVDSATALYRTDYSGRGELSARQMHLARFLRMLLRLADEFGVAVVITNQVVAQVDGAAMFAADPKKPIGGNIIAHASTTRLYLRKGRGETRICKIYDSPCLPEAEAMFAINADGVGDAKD
Procedure: When indicated, chemical compounds in question were added in specified concentrations and incubation was continued for 30 min at 37° C. D-loop formation was initiated by addition of supercoiled pUC19 dsDNA (50 μM, nt) and continued for 15 min. Reactions were stopped by addition of SDS to 1% (w/v) and proteinase K to 880 μg ml^−1 followed by incubation for 15 min at 37° C. […] The yield of joint molecules was expressed as a percentage of the total plasmid DNA.
The reaction was deproteinized and analyzed as described above.
(§1) IC50 values were calculated using GraphPad Prism V5.0 software and the sigmoidal dose-response function. The data were obtained from three independent repeats of experiments.

RecA = biological target: T2, RecA (Escherichia coli, UniProt P0A7G6); test: biochemical; parameters: species or system E. coli; conditions: for IC50: IC50 (RecA), RecA 1 μM, ssDNA 3 μM, dsDNA 50 μM; for inhibition of RecA DNA strand exchange, in words: up to 100 μM
T2 construct: purchased USB Inc. (Cleveland, Ohio)
T2 sequence (P0A7G6 whole entry): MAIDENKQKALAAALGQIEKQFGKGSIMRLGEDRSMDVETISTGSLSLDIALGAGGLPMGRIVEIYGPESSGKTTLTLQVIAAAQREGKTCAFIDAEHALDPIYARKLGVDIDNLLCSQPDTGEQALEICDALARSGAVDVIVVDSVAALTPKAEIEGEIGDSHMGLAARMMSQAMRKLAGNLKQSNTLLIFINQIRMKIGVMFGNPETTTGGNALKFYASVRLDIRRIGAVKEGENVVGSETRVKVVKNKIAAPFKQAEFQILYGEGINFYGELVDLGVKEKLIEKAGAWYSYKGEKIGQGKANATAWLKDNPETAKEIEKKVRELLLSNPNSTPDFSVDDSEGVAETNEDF
Procedure: (Mazin et al., 2000, EMBO J. 19:1148-56). When indicated, chemical compounds in specified concentrations were added and incubation was continued for 30 min at 37° C. D-loop formation was initiated by addition of supercoiled pUC19 dsDNA (50 μM, nt) and carried out for 3 min at 37° C. The DNA products were deproteinized and analyzed as described above for the Rad51-promoted reaction.
as §1

MEF cells = test: Clonogenic survival assay, MEF; type: cell-based, mouse; conditions: AZD2281 1 μM versus MMS only
Procedure: Briefly, MEF cells were trypsinized and the appropriate number of cells was replated on 10 cm tissue culture dishes. […] Cells were fixed and stained using staining solution (0.05% crystal violet, 50% methanol in PBS); colonies were counted using an AlphaImager 3400 (Alpha Innotech Inc.). The percent of survival was determined as described (Hall & Giccia, 2005, “Radiobiology for the Radiologist”, 6th Ed., Philadelphia, Pa.: Lippincott Williams & Wilkins, pp. 30-45). The percent of survival obtained from untreated cells was normalized to 100% survival.

Structure (SMILES): CCn1c(/C=C/c2cccnc2)nc2ccccc2c1=O [Compound C3a, (E)-3-ethyl-2-(2-(pyridin-3-yl)vinyl)quinazolin-4(3H)-one]
inhibitory effect on D-loop formation by RAD51, in words (RAD51): retain the inhibitory effect
IC50 (RAD51): 15.3 µM
IC50 (RecA): > 100 µM
inhibition of RecA DNA strand exchange, in words (RecA): do not inhibit

Structure (SMILES): O=C(c1cc(Cc2n[nH]c(=O)c3ccccc23)ccc1F)N1CCN(C(=O)C2CC2)CC1 [AZD2281, 4-[(3-[(4-cyclopropylcarbonyl)piperazin-4-yl]carbonyl)-4-fluorophenyl]methyl(2H)phthalazin-1-one, reference compound]
sensitivity to MMS (MEF cells): more sensitive

inhibitory effect on D-loop formation by RAD51, in words (RAD51): eliminates the inhibition
Structure (SMILES): Cn1c(C=Cc2cccnc2)nc2ccccc2c1=O [Compound C3e]

Structure (SMILES): Cc1cccc(-n2c(/C=C/c3cccnc3)nc3ccccc3c2=O)c1 [Compound C3b, (E)-2-(2-(pyridin-3-yl)vinyl)-3-(m-tolyl)quinazolin-4(3H)-one]
inhibitory effect on D-loop formation by RAD51, in words (RAD51): retain the inhibitory effect
IC50 (RAD51): 27.3 µM
IC50 (RecA): > 100 µM
inhibition of RecA DNA strand exchange, in words (RecA): do not inhibit

Structure (SMILES): Cc1ccc(-n2c(C=Cc3cccnc3)nc3ccccc3c2=O)cc1 [Compound C3c]
inhibitory effect on D-loop formation by RAD51, in words (RAD51): eliminates the inhibition

Structure (SMILES): O=c1c2ccccc2nc(C=Cc2cccnc2)n1-c1ccccc1 [Compound C3d]
inhibitory effect on D-loop formation by RAD51, in words (RAD51): eliminates the inhibition
